The source of these data is patent US20210078972A1, “QUINOLINE OR QUINAZOLINE COMPOUND AND APPLICATION THEREOF” (HAIHE BIOPHARMA CO., LTD., priority 2018, published 2021).

pIC50: −log10 of the molar value.

One data set has as its target T1, Flt3 kinase (Homo sapiens, UniProt P36888).
T1 construct: purchased life PV6253
T1 sequence (P36888 27-993): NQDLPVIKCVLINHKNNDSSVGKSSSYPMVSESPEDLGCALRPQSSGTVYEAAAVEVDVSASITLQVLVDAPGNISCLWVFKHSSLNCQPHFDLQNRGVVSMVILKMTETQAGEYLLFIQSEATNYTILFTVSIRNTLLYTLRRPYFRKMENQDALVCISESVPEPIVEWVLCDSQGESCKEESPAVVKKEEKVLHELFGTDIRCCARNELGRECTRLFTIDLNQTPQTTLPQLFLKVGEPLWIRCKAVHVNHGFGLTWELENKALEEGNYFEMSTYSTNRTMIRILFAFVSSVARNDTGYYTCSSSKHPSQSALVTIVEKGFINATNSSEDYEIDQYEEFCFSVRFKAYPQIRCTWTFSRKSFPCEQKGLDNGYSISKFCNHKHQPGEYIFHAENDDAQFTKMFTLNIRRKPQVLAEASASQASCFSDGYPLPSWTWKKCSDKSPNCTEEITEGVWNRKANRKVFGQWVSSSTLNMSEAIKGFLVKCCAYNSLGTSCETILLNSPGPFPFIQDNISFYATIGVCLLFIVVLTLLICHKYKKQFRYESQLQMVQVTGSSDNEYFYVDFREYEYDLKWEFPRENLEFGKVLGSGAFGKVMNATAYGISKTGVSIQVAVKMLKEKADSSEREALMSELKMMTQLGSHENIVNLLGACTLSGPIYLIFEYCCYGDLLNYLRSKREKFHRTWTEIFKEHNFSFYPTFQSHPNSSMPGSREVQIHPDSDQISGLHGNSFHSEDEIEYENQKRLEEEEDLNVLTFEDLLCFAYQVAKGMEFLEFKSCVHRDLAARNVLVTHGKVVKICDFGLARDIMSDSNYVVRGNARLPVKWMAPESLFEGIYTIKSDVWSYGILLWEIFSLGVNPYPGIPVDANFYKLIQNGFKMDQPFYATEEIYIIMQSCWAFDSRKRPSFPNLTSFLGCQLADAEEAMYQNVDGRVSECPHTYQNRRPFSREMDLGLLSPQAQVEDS
The experiment in a line: Flt3 kinase inhibition, Z'-LYTE FRET. Type of data set: biochemical. As to conditions: ATP 500 μM. The source says: Detection of the activity of kinase: the inhibitory activities of the compounds against Flt3 kinase (life, PV6253) were detected through a second-order reaction by the Z′-LYTE™ technology (detected by fluorescence, enzyme-coupled form, based on the difference in a sensitivity of phosphorylated and non-phosphorylated polypeptides to proteolytic cleavage), based on the principle of fluorescence resonance energy transfer (FRET), using Z′-LYTE™ FRET peptide substrate (Z′-LYTE™ Tyrosine 2 Peptide Substrate, Invitrogen, PV3191).
Enzymatic reaction: To a 384-well plate were added 5 μL of enzyme-substrate system (50 mM HEPES, pH 7.5, 0.01% BRU-35, 10 mM MgC2, 1 mM EGTA), 2.5 μL of a compound (concentration gradient) and 2.5 μL of a mixed solution of ATP (a final concentration of a substrate Z′-LYTE™ Tyrosine 2 Peptide Substrate was 2 μM, and a final concentration of ATP was 500 μM), and then the plate was incubated at 37° C. in the dark for 1 h.
Detecting reaction: 5 μL of Development Solution (1:64 dilution) was added to each well and the plate was incubated at 37° C. in the dark for 1 h, then 5 μL of Stop Reagent was added.
The data analysis method is as follows:
Phosphorylation ratio=1−{(emission ratio×F100%−C100%)/[C0%−C100%+emission ratio×(F100%−F0%)]}×100;
Inhibition rate=100×(1−compound phosphorylation ratio/negative control phosphorylation ratio).
The IC50 values were calculated by GraphPad Prism software.

Data set [1] relates to Mixed primary male beagle canine hepatocytes. As to the kind of experiment: Metabolism in canine hepatocytes, UPLC-UV/Q-TOF MS. Type of data set: in vitro ADME. As to conditions: 180 min. The protocol:
In this example, a UPLC-UV/Q-TOF MS method was used to evaluate the differences in the metabolic processes of TL134 in hepatocytes of five species of human, monkey, canine, rat, and mouse.
The total volume of each incubation sample was 100 μL, the medium was WME medium (pH 7.4), and the incubation sample included hepatocytes with a cell density of 1.0×10^6 cells/mL and TL134 with a final concentration of 3.0 μM; the negative control sample was incubated with thermal-inactivated mixed hepatocytes (without cell counting) of five species of animals and TL134, and the buffer control sample was incubated with WME medium and TL134. All samples were incubated at 37° C. for 180 min, and then 100 μL of ice-cold acetonitrile was added to stop the reaction. The samples were stored at −70° C. for ready to be tested, and all incubation samples were double samples.
Triple TOF 5600′ quadrupole-time-of-flight tandem mass spectrometer (Q-TOF MS), equipped with electrospray ionization source (ESI source) and CDS automatic calibration system, AB SCIEX Company, USA; Acquity UPLC liquid chromatography system, including binary infusion pump, autosampler, column oven, degasser and TUV ultraviolet detector, Waters Company, USA. […]

A word on the pIC50: it is the IC50 on a negative log10 scale, so that one unit is a factor of ten. Molecule `CCc1ccc2c(c1)c(=O)c(C(=O)Nc1ccc(Oc3ncnc4cc(OCCCN5CCOCC5)c(OC)cc34)c(F)c1)c(C)n2C` [GDL5000123, 6-ethyl-N-(3-fluoro-4-((6-methoxy-7-(3-morpholinopropoxy)quinazolin-4-yl)oxy)phenyl)-1,2-dime thyl-4-oxo-1,4-dihydroquinoline-3-carboxamide, reference compound] gave a pIC50 against Flt3 kinase of 8.00. In addition, in data set [1], the “prototype drug metabolized, judging from the UV chromatographic peak areas” value is approximately 27.2%.
`COc1cc2c(Oc3ccc(NC(=O)c4c(C)n(C)c5ccc(OC(F)(F)F)cc5c4=O)cc3F)ncnc2cc1OCCCN1CCOCC1` [TL-134, N-(3-fluoro-4-((6-methoxy-7-(3-morpholinopropoxy)quinazolin-4-yl)oxy)phenyl)-1,2-dim ethyl-4-oxo-6-(trifluoromethoxy)-1,4-dihydroquinoline-3-carboxamide] showed a pIC50 against Flt3 kinase of 8.72. In addition, the “prototype drug metabolized, judging from the UV chromatographic peak areas” value in data set [1] is reported as approximately 15.4%.
